In assay [1] the target is T1, Human R protein (Human R) (Homo sapiens, UniProt P20061).
T1 construct: from tissue; host or cells: human saliva
T1 sequence (P20061 24-433): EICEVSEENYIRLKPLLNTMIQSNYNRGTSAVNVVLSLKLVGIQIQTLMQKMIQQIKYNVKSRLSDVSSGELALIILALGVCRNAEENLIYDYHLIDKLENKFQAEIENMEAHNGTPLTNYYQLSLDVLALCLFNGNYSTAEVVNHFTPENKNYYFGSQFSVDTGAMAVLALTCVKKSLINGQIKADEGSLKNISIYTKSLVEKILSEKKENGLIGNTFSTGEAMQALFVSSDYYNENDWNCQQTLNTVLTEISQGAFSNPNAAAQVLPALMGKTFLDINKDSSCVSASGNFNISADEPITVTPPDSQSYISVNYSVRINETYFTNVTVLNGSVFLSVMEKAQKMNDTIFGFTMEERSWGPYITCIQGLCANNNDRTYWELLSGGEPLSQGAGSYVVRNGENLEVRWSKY
The assay is described as follows: Radioisotope dilution (RID) radiobinding assay for vitamin B12, Human R binder. The format is binding. To be noted: 500 pg added to human serum in the dark, 15 min incubation, standard extraction. The procedure: (§1) Each of the RID assays referred to herein utilized the components referred to above. That is, components A, B, C, etc. or the buffer, albumin, and salt, respectively, etc. were added in the order, from left to right, shown in Table 1.
(§2) After the addition of ^57 Co-B12 the components are mixed thoroughly to mix both the naturally occurring B12 and the radioisotope B12 to make them compete and equally available to react with the binder. After the addition of the binder, H, the components were again mixed thoroughly, and then incubated for 45 minutes at about 37° C. Charcoal was then added to the incubated mixture and the components again mixed thoroughly and incubated for another 5 minutes at room temperature. This was followed by centrifuging at 2000×g at 4° C. for 30 minutes. Then 1000 ul of the resulting supernatant liquid is pipetetted from the sample and a determination of the amount of ^57 Co-B12 present is made. The amount of ^57 Co-B12 is indicative of the amount of natural B12 in the tested sample, with lesser amounts of ^57 Co-B12 being indicative of greater amounts of natural vitamin B12 in the sample.
(§3) (1) The values in tubes 3 and 4, the "blank" tubes without binder are averaged and subtracted from all other tubes starting with tube 5.
(§4) (2) The background radiation is subtracted from tubes 1 and 2 and these values are averaged.
(§5) (3) Tubes 5 and 6 are averaged. This value should be at least 15% below the average value for tubes 1 and 2 to insure that all of the binder is saturated in the presence of (^57 Co) B12 alone.
(§6) (4) Values for each tube beginning with tube 7 are divided by the average of tubes 5 and 6 to give values for "% trace binding."
(§7) (5) Percent trace binding for tubes 7-14 are used to obtain a standard curve. We plot % trace binding on the ordinate of logit-log paper versus pg vitamin B12 on the log scale.
(§8) (6) The amount of vitamin B12 in unknown samples is determined by interpolation from the standard curve or data of % trace binding versus pg vitamin B12. […]

Assay [2] concerns the target Human intrinsic factor (Human IF) (Homo sapiens, UniProt P27352). The assay is described as follows: Radioisotope dilution (RID) radiobinding assay for vitamin B12, Human IF binder. The format is binding. As to conditions: 500 pg added to human serum in the dark, 15 min incubation, standard extraction. The procedure:
as §1, §2, §3, §4, §5, §6, §7, §8

Sequence of Human intrinsic factor (Human IF) (P27352 19-417): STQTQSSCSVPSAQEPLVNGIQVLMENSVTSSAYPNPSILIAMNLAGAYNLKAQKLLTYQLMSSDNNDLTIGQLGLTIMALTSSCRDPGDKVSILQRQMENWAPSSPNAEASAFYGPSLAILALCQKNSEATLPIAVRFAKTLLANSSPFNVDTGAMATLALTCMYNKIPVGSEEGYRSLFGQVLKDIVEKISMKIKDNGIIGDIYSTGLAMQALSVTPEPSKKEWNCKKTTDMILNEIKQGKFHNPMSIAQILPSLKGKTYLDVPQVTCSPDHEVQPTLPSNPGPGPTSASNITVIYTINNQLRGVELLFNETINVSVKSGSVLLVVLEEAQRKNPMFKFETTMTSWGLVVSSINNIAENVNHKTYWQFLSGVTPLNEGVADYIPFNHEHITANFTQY

Consider `C/C1=C2/[N-][C@H]([C@H](CC(N)=O)[C@@]2(C)CCC(=O)NC[C@@H](C)OP(=O)([O-])O[C@H]2[C@@H](O)[C@@H](n3cnc4cc(C)c(C)cc43)O[C@@H]2CO)[C@]2(C)N=C(/C(C)=C3N=C(/C=C4N=C1[C@@H](CCC(N)=O)C\4(C)C)[C@@H](CCC(N)=O)[C@]\3(C)CC(N)=O)[C@@H](CCC(N)=O)[C@]2(C)CC(N)=O.[Co+3].[OH-]` [OH-B12], for which the “increase in the apparent amount of vitamin B12, RID with human R protein” value (“increase … with human R protein” below) in assay [1] is on record as “about 500 pg”. Also, in assay [2], the “increase in the apparent amount of vitamin B12, RID with human IF protein” value (“increase … with human IF protein” for short) is “about 500 pg”.

`C/C1=C2/[N-]C([C@H](CC(N)=O)[C@@]2(C)CCC(=O)NC[C@@H](C)OP(=O)([O-])O[C@H]2[C@@H](O)[C@@H](n3cnc4cc(C)c(C)cc43)O[C@@H]2CO)[C@]2(C)N=C(/C(C)=C3N=C(/C=C4N=C1[C@@H](CCC(N)=O)C\4(C)C)[C@@H](CCC(N)=O)[C@]\3(C)CC(N)=O)[C@@H](CCC(N)=O)[C@]2(C)CC(N)=O.[CH2-][C@H]1O[C@@H](n2cnc3c(N)ncnc32)[C@@H](O)[C@@H]1O.[Co+3]` [adenosyl-B12]: the “increase … with human R protein” value in assay [1] was “about 500 pg”. The “increase … with human IF protein” value in assay [2] is recorded as “about 500 pg”.

In the case of CH3 -B12, the “increase … with human R protein” value in assay [1] is reported as “about 500 pg”. Further, the “increase … with human IF protein” value in assay [2] was “about 500 pg”.

Values taken from patent publication US4351822A, “Quantitative testing for vitamin B12” (University Patents, Inc., priority 1979, dated 1982).
